From PubChem BioAssay (NCI)
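These data come from cells grown in 96-well plates and exposed to compound for 48 hours at five concentrations. Abbreviation: GI50, concentration required for 50% inhibition of growth. TGI: concentration producing complete growth inhibition.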

Experiments:
Experiment in all cases: NCI anticancer screen, dose series, 48 h
SK-MEL-5 melanoma = tested on: SK-MEL-5 melanoma
SF-295 CNS = tested on: SF-295 CNS
SR leukemia = tested on: SR leukemia
OVCAR-4 ovarian = tested on: OVCAR-4 ovarian
IGROV1 ovarian = tested on: IGROV1 ovarian
ACHN renal = tested on: ACHN renal
BT-549 breast = tested on: BT-549 breast
HOP-92 NSCLC = tested on: HOP-92 NSCLC
DLD-1 colon = tested on: DLD-1 colon
KM20L2 colon = tested on: KM20L2 colon

Row | Compound | GI50 (SK-MEL-5 melanoma) | TGI (SK-MEL-5 melanoma) | GI50 (SF-295 CNS) | TGI (SF-295 CNS) | GI50 (SR leukemia) | TGI (SR leukemia) | GI50 (OVCAR-4 ovarian) | TGI (OVCAR-4 ovarian) | GI50 (IGROV1 ovarian) | TGI (IGROV1 ovarian) | GI50 (ACHN renal) | TGI (ACHN renal) | GI50 (BT-549 breast) | TGI (BT-549 breast) | GI50 (HOP-92 NSCLC) | TGI (HOP-92 NSCLC) | TGI (DLD-1 colon) | TGI (KM20L2 colon)
1 | O=C(Nc1ccc(Oc2ccc(F)cc2)cc1)[C@@H]1C[C@@H](Cc2ccc(F)cc2)CN1C(=O)Cn1ccnn1 | 9.12 µM | 22.6 µM | 3.64 µM | 14.2 µM | 3.14 µM | 14.2 µM | 6.29 µM | > 69.9 µM | 8 µM | 28.2 µM | 4.93 µM | 25.2 µM | 11.5 µM | 30 µM | 7.54 µM | 31.3 µM |  | 
2 | O=[N+]([O-])c1ccc(C2=Nc3ccccc3S(=O)C(c3ccccc3)C2)cc1 (stereo not drawn) |  |  |  | > 100 µM |  |  |  | 42 µM |  | 36.9 µM |  | 44.2 µM |  |  |  |  | 38.4 µM | 57.8 µM
3 | O=C1Nc2ccc(Cl)cc2/C1=C\c1c(-c2ccc(Cl)cc2)nc2sc(C3CC3)nn12 | 3.2 µM | 13 µM | 2.23 µM | 6.89 µM | 12.6 µM | 75.8 µM | 1.96 µM | 5.16 µM | 4.12 µM | 15.8 µM | 2.77 µM | 12.3 µM | 2.52 µM | 9.27 µM | 2.01 µM | 5.89 µM |  | 
4 | CCOC(=O)[C@@H](C)C[C@H](Cc1ccccc1)NC(=O)c1csc([C@@H](C[C@H](C(C)C)N(C)C(=O)[C@@H](NC(=O)[C@H]2CCCCN2C)C(C)(C)CC)OC(C)=O)n1 | < 0.00167 µM | 0.0294 µM | < 0.00167 µM | 1.87 µM | < 0.00167 µM | 3.39 µM | 0.0146 µM | > 16.7 µM | 0.0021 µM | > 16.7 µM | 0.00225 µM | > 14.1 µM | < 0.00167 µM | 0.107 µM | 0.0019 µM | 5.69 µM |  | 
5 | CC(=O)C1CCN(c2ccccc2)C1 (stereo not drawn) |  | > 100 µM |  | > 100 µM |  | > 100 µM |  | > 100 µM |  | > 100 µM |  | > 100 µM |  |  |  | > 100 µM | > 100 µM | 
6 | C=C1C(=O)O[C@H]2[C@H]1CC/C(COC(=O)c1cc(OC)c(OC)c(OC)c1)=C\CC[C@@]1(C)O[C@@H]21 | 1.68 µM | 3.05 µM | 3.84 µM | 15.8 µM | 0.342 µM | 7.33 µM | 2.09 µM | 6.11 µM | 0.477 µM | 2.05 µM | 0.743 µM | 2.02 µM | 1.06 µM | 2.35 µM | 0.523 µM | 2.1 µM |  | 
7 | NS(=O)(=O)c1ccc(Nc2cc(-c3ccc(O)c(F)c3)[nH]n2)cc1 | 10.7 µM | > 25 µM | > 25 µM | > 25 µM | 12.5 µM | > 25 µM | 8.8 µM | > 25 µM | > 25 µM | > 25 µM | > 25 µM | > 25 µM | 8.66 µM | > 25 µM | > 18.3 µM | > 25 µM |  | 
8 | O=C(O/N=C1\CCCC\C1=C/c1ccccc1)c1ccc([N+](=O)[O-])cc1 |  |  |  | > 100 µM |  | > 100 µM |  | > 100 µM |  |  |  | > 100 µM |  |  |  | > 100 µM | > 100 µM | > 100 µM
9 | O=C1NC(=NCc2ccccc2Cl)S/C1=C\c1ccc2ncccc2c1 | 22.4 µM | > 25 µM | 9.59 µM | > 25 µM | 1.04 µM | > 19.6 µM | 14.7 µM | > 25 µM | 9.01 µM | > 25 µM | 9.54 µM | > 25 µM | 7.86 µM | > 25 µM | 5.85 µM | > 22.1 µM |  | 
10 | O=C1CC(c2c[nH]c3ccc(F)cc23)C(=O)N1 (stereo not drawn) | > 100 µM | > 100 µM | > 100 µM | > 100 µM | > 100 µM | > 100 µM | > 100 µM | > 100 µM | > 100 µM | > 100 µM | > 100 µM | > 100 µM | > 100 µM | > 100 µM | > 100 µM | > 100 µM |  | 
11 | CCCCN(CCCC)C(=O)[C@H](CC)[C@@H]1CC[C@@H](C)[C@@H]([C@H](C)[C@@H](O)[C@@H](C)C(=O)[C@H](CC)C2O[C@]3(C=C[C@@H](O)[C@]4(CC[C@@](C)([C@H]5CC[C@](O)(CC)[C@H](C)O5)O4)O3)[C@H](C)C[C@@H]2C)O1 (stereo partly drawn) | 1.73 µM | 3.15 µM | 2.06 µM | 6.38 µM | 2.89 µM | 8.53 µM | 2.85 µM | 36 µM | 3 µM | 15.2 µM | 3.04 µM | 10.5 µM | 2.73 µM | 11.3 µM | 1.2 µM | 4.05 µM |  | 
12 | C#Cc1cccc(Nc2ncnc3cc(NC(=O)CCl)ccc23)c1 | 3.37 µM | 6.71 µM | 3.51 µM | 6.95 µM | 0.535 µM | 4.08 µM | 2.16 µM | 6.95 µM | 1.43 µM | 6.84 µM | 2.14 µM | 5.66 µM | 3.23 µM | 6.99 µM | 3.56 µM | 8.09 µM |  | 
13 | O=C1/C(=C/c2ccc(Cl)c(Cl)c2)CN(C(=O)C(Cl)Cl)C/C1=C\c1ccc(Cl)c(Cl)c1 | 0.196 µM | 0.418 µM | 0.154 µM | 0.704 µM | 0.0267 µM | > 100 µM | 0.0743 µM | 1.49 µM | 0.103 µM | 0.306 µM | 0.179 µM | 0.474 µM | 0.228 µM | 0.701 µM | 0.19 µM | 0.541 µM |  | 
14 | O=C1NC(=S)S/C1=C\c1cn(-c2ccccc2)nc1-c1ccccc1 | 3.19 µM | 14.2 µM | 3.33 µM | 17.2 µM | 7.29 µM | 49.7 µM | 8.14 µM | > 100 µM | 13.9 µM | 38.9 µM | 7.4 µM | 21.4 µM | 5.2 µM | 23.7 µM | 0.623 µM | 5.34 µM |  | 
15 | O=C(c1ccc(O)cc1O)C1C(c2ccc(O)cc2)OC(c2ccc(O)cc2)C1C(=O)c1ccc(O)cc1O (stereo not drawn) |  | 29.6 µM |  | 67.9 µM |  |  |  | > 100 µM |  |  |  | 63.1 µM |  |  |  |  | > 100 µM | > 100 µM
